Legend:
Assay in all cases: CTG-3D luminescence at 96 h relative to day-0 seeding control (ratio to day 0); higher = more growth / less cytotoxicity; PDxO 3D drug screen, 96 h, CTG-3D normalised to day-0 seeding control.
HCI-010 = tested on: HCI-010 (organoid from a breast cancer xenograft)
HCI-001 = tested on: HCI-001 (organoid from a triple-negative breast cancer xenograft)
HCI-016 = tested on: HCI-016 (organoid from a triple-negative breast cancer xenograft)
HCI-003.E2 = tested on: HCI-003.E2 (organoid from an ER-positive breast cancer xenograft)

O=C(O)C1(C(=O)O)CCC1.[NH2-].[NH2-].[Pt+2] [carboplatin]
CTG-3D luminescence at 96 h
Details | 12.5 pM | 0.00025 µM | 0.005 µM | 0.1 µM | 1 µM | 10 µM | 100 µM | 625 fM
HCI-001, days in culture: 240 | 1.59 | 1.15 | 0.945 | 1.27 | 1.63 | 1.29 | 0.471 | 1.36
HCI-001, days in culture: 260 | 1.71 | 0.978 | 2.01 | 1.09 | 1.41 | 1.48 | 0.569 | 0.928
HCI-001, days in culture: 269 | 1.59 | 1.61 | 1.58 | 1.8 | 1.83 | 2.14 | 0.918 | 1.75
HCI-001, days in culture: 327 | 1.5 | 1.43 | 2.04 | 1.74 | 1.53 | 1.15 | 0.592 | 1.83
HCI-001, days in culture: 346 | 1.42 | 1.53 | 1.03 | 1.02 | 1.47 | 1.47 | 1.01 | 1.35
HCI-001, days in culture: 364 | 1.45 | 1.09 | 1.54 | 0.839 | 1.01 | 1.56 | 0.829 | 1.51
HCI-010, days in culture: 52 | 1.92 | 2.23 | 2.25 | 2.47 | 2.55 | 0.598 | 0.0393 | 1.82
HCI-010, days in culture: 65 | 1.63 | 1.56 | 1.74 | 1.77 | 1.63 | 0.511 | 0.0408 | 1.74
HCI-010, days in culture: 103 | 3.69 | 3.41 | 3.55 | 3.27 | 3.23 | 0.639 | 0.13 | 3.07
HCI-016, days in culture: 153 | 3.27 | 2.03 | 2.66 | 2.2 | 2.81 | 0.866 | 0.0935 | 2.64
HCI-016, days in culture: 172 | 2.27 | 2.25 | 1.89 | 1.3 | 1.71 | 0.761 | 0.139 | 1.78
HCI-016, days in culture: 190 | 1.49 | 1.29 | 1.53 | 1.17 | 1.46 | 0.642 | 0.12 | 1.18
HCI-016, days in culture: 199 | 1.55 | 1.29 | 1.34 | 1.29 | 1.64 | 0.782 | 0.081 | 1.86

HCI-003.E2
Details | CTG-3D luminescence at 96 h
12.5 pM | 2.12
0.00025 µM | 2.49
0.005 µM | 2.22
0.1 µM | 2.23
1 µM | 2.32
10 µM | 2.35
100 µM | 1.65
625 fM | 2.11

Cc1cc(Nc2ncnc3ccc(NC4=NC(C)(C)CO4)cc23)ccc1Oc1ccn2ncnc2c1 [tucatinib]
CTG-3D luminescence at 96 h
Details | 12.5 pM | 0.00025 µM | 0.005 µM | 0.1 µM | 1 µM | 10 µM | 100 µM | 625 fM
HCI-001, days in culture: 240 | 1.47 | 0.88 | 0.65 | 1.24 | 1.37 | 1.02 | 0.0264 | 1.43
HCI-001, days in culture: 260 | 2.62 | 0.988 | 1.22 | 1.38 | 0.756 | 1.46 | 0.206 | 1.5
HCI-001, days in culture: 269 | 1.48 | 1.49 | 1.39 | 1.64 | 1.38 | 1.67 | 0.0618 | 1.69
HCI-001, days in culture: 327 | 1.8 | 1.6 | 1.87 | 1.75 | 1.44 | 1.16 | 0.0356 | 1.78
HCI-001, days in culture: 346 | 1.47 | 1.22 | 1.17 | 1 | 1.24 | 1.25 | 0.0455 | 1.21
HCI-001, days in culture: 364 | 1.49 | 1.19 | 1.34 | 0.88 | 0.895 | 1.28 | 0.0245 | 1.63
HCI-010, days in culture: 52 | 2.07 | 2.16 | 2.18 | 2.37 | 2.53 | 2.2 | 0.0134 | 2.34
HCI-010, days in culture: 65 | 1.6 | 1.68 | 1.97 | 1.81 | 1.83 | 1.4 | 0.008 | 1.64
HCI-010, days in culture: 103 | 3.37 | 3.95 | 3.45 | 3.39 | 3.5 | 2.84 | 0.014 | 3.37
HCI-016, days in culture: 153 | 2.94 | 1.99 | 2.31 | 1.49 | 2.19 | 1.96 | 0.013 | 1.94
HCI-016, days in culture: 172 | 2.3 | 2.27 | 1.67 | 1.43 | 1.54 | 0.81 | 0.0152 | 1.3
HCI-016, days in culture: 190 | 1.7 | 1.19 | 1.48 | 1.54 | 1.57 | 1.45 | 0.0124 | 1.1
HCI-016, days in culture: 199 | 1.77 | 1.74 | 1.65 | 1.66 | 1.78 | 1.38 | 0.019 | 1.83

HCI-003.E2
Details | CTG-3D luminescence at 96 h
12.5 pM | 2.15
0.00025 µM | 2.41
0.005 µM | 2.02
0.1 µM | 2.29
1 µM | 1.93
10 µM | 1.31
100 µM | 0.018
625 fM | 2.12

C/C=C1\NC(=O)[C@H]2CSSCC/C=C/[C@H](CC(=O)N[C@H](C(C)C)C(=O)N2)OC(=O)[C@H](C(C)C)NC1=O [romidepsin]
CTG-3D luminescence at 96 h
Details | 12.5 pM | 0.00025 µM | 0.005 µM | 0.1 µM | 1 µM | 10 µM | 100 µM | 625 fM
HCI-001, days in culture: 240 | 1.85 | 1.11 | 0.504 | 0.308 | 0.442 | 0.0301 | -0.0763 | 1.57
HCI-001, days in culture: 260 | 2.41 | 0.948 | 1.41 | 0.615 | 0.865 | 0.141 | -0.0313 | 1.64
HCI-001, days in culture: 269 | 1.82 | 1.72 | 0.783 | 0.423 | 0.38 | 0.00899 | -0.0103 | 1.64
HCI-001, days in culture: 327 | 1.6 | 1.01 | 0.868 | 0.329 | 0.501 | -0.124 | -0.199 | 1.75
HCI-001, days in culture: 346 | 1.68 | 1.28 | 0.579 | 0.303 | 0.317 | -0.107 | -0.155 | 1.21
HCI-001, days in culture: 364 | 1.68 | 1.04 | 0.67 | 0.274 | 0.349 | 0.0111 | -0.0729 | 1.63
HCI-010, days in culture: 52 | 1.97 | 2.29 | 1.13 | 0.189 | 0.128 | 0.0169 | -0.00333 | 1.81
HCI-010, days in culture: 65 | 1.32 | 1.34 | 0.941 | 0.326 | 0.276 | 0.0354 | -0.00525 | 1.52
HCI-010, days in culture: 103 | 2.94 | 3.14 | 1.69 | 0.316 | 0.226 | 0.0082 | -0.00621 | 2.77
HCI-016, days in culture: 153 | 2.79 | 0.384 | 0.563 | 0.106 | 0.214 | -0.00553 | -0.0108 | 2.21
HCI-016, days in culture: 172 | 2.29 | 1.31 | 0.385 | 0.107 | 0.127 | 0.00531 | -0.0131 | 1.69
HCI-016, days in culture: 190 | 1.76 | 1.62 | 0.684 | 0.0156 | 0.0109 | -0.0529 | -0.107 | 1.55
HCI-016, days in culture: 199 | 2 | 2.14 | 0.631 | 0.071 | 0.0656 | -0.00558 | -0.0191 | 2.15

HCI-003.E2
Details | CTG-3D luminescence at 96 h
12.5 pM | 1.2
0.00025 µM | 0.624
0.005 µM | 0.21
0.1 µM | 0.0473
1 µM | 0.0243
10 µM | 0.0035
100 µM | -0.00659
625 fM | 0.719

From the supplement of paper PMC8882468
